Measurements published in US4565817A, “Theophyllinyl-alkyl-oxadiazoles, process for the preparation thereof and pharmaceutical compositions containing same” (Chinoin Gyogyszer-es Vegyeszeti Termekek Gyara R.T., priority 1982, dated 1986).

Experiments:
guinea pigs = assay: Cough relieving against 15% citric acid spray in guinea pigs, one hour after administration; assay type: in vivo; conditions: Cavia porcellus, im, 1 h, one hour after 50 mg/kg i.m., % related to the control, read-out: Cough inhibition Q %
Description: Q = Cough relieving induced by 15% citric acid spray in guinea pigs one
hour after administration of the substances (50 mg/kg, i.m.) expressed in
% related to the control.

in vivo = conditions: mouse
[1] = General pharmacological activity (cough relieving, bronchodilatory, antiasthmatic, antiinflammatory); conditions: in vivo
[2] = system: rat paw carrageenin oedema; assay: Rat paw carrageenin oedema test; assay type: in vivo; conditions: i.m. administration, compared with indomethacin
Excerpt: Another special group of the compounds according to the invention are the compounds having an alkyl amino group in place of R1. […] This activity is important in cough relieving accompanied by inflammation in the respiration system.

[3] = system: spasm caused by acetyl choline or serotonine; assay: Spasm caused by acetyl choline or serotonine
Excerpt: (§1) A special group of the compounds of the formula I are those compounds in which R1 stands for alkyl, aralkyl, or aryl. […] Path. […] This activity is significant in relieving cough of the asthmatic type.

guinea pig = assay: Bronchial spasm induced by histamine, in vivo according to Konzett and Rossler
Excerpt: as §1

[4] = system: trachea stria isolated from rabbit; assay: Bronchial spasm induced by histamine, in vitro on isolated trachea stria
Excerpt: as §1

Cn1c(=O)c2c(ncn2Cc2noc(CCN3CCCCC3)n2)n(C)c1=O showed an inhibition in vivo at 50 mg/kg (guinea pigs) of 54.1%, an LD50 (in vivo; iv) of 240 mg/kg and an LD50 (in vivo; po) of 1550 mg/kg.

Compound CN1CCN(CCc2nc(Cn3cnc4c3c(=O)n(C)c(=O)n4C)no2)CC1 has an inhibition in vivo at 50 mg/kg (guinea pigs) of 54.5%, an LD50 (in vivo; iv) of 224 mg/kg and an LD50 (in vivo; po) of 1670 mg/kg.

COc1ccc2c3c1O[C@H]1[C@@H](O)C=C[C@H]4[C@@H](C2)N(C)CC[C@@]341 [Codeine, reference compound] showed an inhibition in vivo at 50 mg/kg (guinea pigs) of 50% and an LD50 (in vivo; iv) of 54 mg/kg.

For CC(C)NCCc1nc(CCn2cnc3c2c(=O)n(C)c(=O)n3C)no1 [(CH2)2 (CH2)2 NHi.Pr], the inhibition in vivo at 50 mg/kg (guinea pigs) was 54.7%, the LD50 (in vivo; iv) was 200 mg/kg and the LD50 (in vivo; po) was 1750 mg/kg.

Compound Cn1c(=O)c2c(ncn2CCc2noc(CCN3CCOCC3)n2)n(C)c1=O has an inhibition in vivo at 50 mg/kg (guinea pigs) of 48.6%, an LD50 (in vivo; iv) of 217 mg/kg and an LD50 (in vivo; po) of 2600 mg/kg.

CCN(CC)CCc1nc(CCCn2cnc3c2c(=O)n(C)c(=O)n3C)no1 [Example 12, 7-[3-5-(2-diethylamino-ethan-1-yl)-1,2,4-oxadiazol-3-yl-propan-1-yl]-theophylline-maleinate] gave an inhibition in vivo at 50 mg/kg (guinea pigs) of 51.5%, an LD50 (in vivo; iv) of 237 mg/kg and an LD50 (in vivo; po) of 2250 mg/kg.

For Cn1c(=O)c2c(ncn2CCCc2noc(CCN3CCOCC3)n2)n(C)c1=O, the inhibition in vivo at 50 mg/kg (guinea pigs) was 47.7%, the LD50 (in vivo; iv) was 220 mg/kg and the LD50 (in vivo; po) was 1900 mg/kg.

In the case of CCN(CC)CCc1nc(Cn2cnc3c2c(=O)n(C)c(=O)n3C)no1 [Example 4, 7-[{5-(2-diethylamino-ethan-1-yl)-1,2,4-oxadiazol-3-yl}-methyl]-theophylline], the “pharmacological activity in words” value [1] is reported as “cough relieving and bronchodilatory activity”, the inhibition in vivo at 50 mg/kg (guinea pigs) is reported as 56.7% and the LD50 (in vivo; iv) is reported as 215 mg/kg. For the same compound, the LD50 (in vivo; po) was 1400 mg/kg and the anti-inflammatory activity [2] was “strong (comparable with indomethacin) anti-inflammatory activity”.

With Cc1nc(Cn2cnc3c2c(=O)n(C)c(=O)n3C)no1 [Example 1, 7-[(5-methyl-1,2,4-oxadiazol-3-yl)-methyl]-theophylline] the inhibition in vivo at 50 mg/kg (guinea pigs) was 54.3%, the “spasm caused by acetyl choline” value ([3]; acetyl choline) was “prevents the spasm caused by acetyl choline or serotonine” and the “spasm caused by serotonine” value ([3]; serotonine) was “prevents the spasm caused by acetyl choline or serotonine”. For the same compound, the duration of activity (guinea pig; histamine-induced bronchial spasm, compared with theophylline ethylene diamine) was “considerably longer than in case of theophylline ethylene diamine”, the “bronchial spasm induced by histamine (in vivo)” value (guinea pig; in vivo, guinea pig, Konzett and Rossler, histamine) was “decreases the bronchial spasm induced by histamine” and the “bronchial spasm induced by histamine (in vitro)” value [4] was “decreases the bronchial spasm induced by histamine”.

Compound CN1CCN(CCc2nc(CC(O)Cn3cnc4c3c(=O)n(C)c(=O)n4C)no2)CC1 (stereo not shown) has an inhibition in vivo at 50 mg/kg (guinea pigs) of 48.6%, an LD50 (in vivo; iv) of 215 mg/kg and an LD50 (in vivo; po) of 1800 mg/kg.

With CCCc1nc(Cn2cnc3c2c(=O)n(C)c(=O)n3C)no1 [Example 18] the inhibition in vivo at 50 mg/kg (guinea pigs) was 51.1%, the LD50 (in vivo; iv) was 390 mg/kg and the LD50 (in vivo; po) was 1400 mg/kg.

In the case of c1ccc(C(Cc2noc(CCN3CCCCC3)n2)c2ccccc2)cc1 [Prenoxdiazine, reference compound], the inhibition in vivo at 50 mg/kg (guinea pigs) is reported as 44.5%, the LD50 (in vivo; iv) is reported as 34 mg/kg and the LD50 (in vivo; po) is reported as 920 mg/kg.

Cn1c(=O)c2c(ncn2Cc2noc(CCN3CCOCC3)n2)n(C)c1=O gave an inhibition in vivo at 50 mg/kg (guinea pigs) of 55.4%, an LD50 (in vivo; iv) of 230 mg/kg and an LD50 (in vivo; po) of 1530 mg/kg.
